Laboratory results taken from the supplement of paper PMC10307832.

What was measured:
Experiment in all cases: relative viability (nuclei count vs DMSO), 5 days (fraction); higher = more cells survive
Axitinib + Vorinostat = compound: CNC(=O)c1ccccc1Sc1ccc2c(/C=C/c3ccccn3)n[nH]c2c1 [Axitinib] + O=C(CCCCCCC(=O)Nc1ccccc1)NO [Vorinostat] (partner 1 µM)
Method in brief: (§1)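 The day after seeding in 1536-well plates, lung cancer cell lines were treated by pin tool with a single drug, or with a fixed anchor-drug dose together with five library-drug doses (not always all listed) in √10 steps. After 5 days, a combined fix-and-stain solution (final 0.05% Triton X-100, 1% formaldehyde, 1 ug/ml Hoechst) was added. Nuclei counted on 4× images gave relative viability as treated counts over vehicle counts, reported as the median of duplicate plates.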

[1] = compound: CC1=CC=C(C=C1)C(=O)CN2C3=C(CCCC3)SC2=N [Pifithrin_alpha] + COc1cccc2cc(-c3nc([C@H]4CC[C@H](C(=O)O)CC4)n4ncnc(N)c34)[nH]c12 [OSI-027] (partner 0.5 µM)
Method in brief: as §1

[2] = compound: CC1=CC=C(C=C1)C(=O)CN2C3=C(CCCC3)SC2=N [Pifithrin_alpha] + Cc1cc(Nc2cc(N3CCN(C)CC3)nc(Sc3ccc(NC(=O)C4CC4)cc3)n2)n[nH]1 [Tozasertib] (partner 0.1 µM)
Method in brief: as §1

[3] = compound: CC1=CC=C(C=C1)C(=O)CN2C3=C(CCCC3)SC2=N [Pifithrin_alpha] + Cc1nc(Nc2ncc(C(=O)Nc3c(C)cccc3Cl)s2)cc(N2CCN(CCO)CC2)n1 [Dasatinib] (partner 0.075 µM)
Method in brief: as §1

NCI-H650
relative viability (Axitinib + Vorinostat; first compound 0.005 µM): 0.371
relative viability (Axitinib + Vorinostat; first compound 0.01581 µM): 0.452
relative viability (Axitinib + Vorinostat; first compound 0.05 µM): 0.448
relative viability (Axitinib + Vorinostat; first compound 0.1581 µM): 0.459
relative viability (Axitinib + Vorinostat; first compound 0.5 µM): 0.366
relative viability ([1]; first compound 3.162 µM): 0.51
relative viability ([1]; first compound 10 µM): 0.582
relative viability ([1]; first compound 31.62 µM): 0.489
relative viability ([1]; first compound 100 µM): 0.427
relative viability ([2]; first compound 3.162 µM): 0.79
relative viability ([2]; first compound 10 µM): 0.678
relative viability ([2]; first compound 31.62 µM): 0.548
relative viability ([2]; first compound 100 µM): 0.624
relative viability ([3]; first compound 3.162 µM): 0.489
relative viability ([3]; first compound 10 µM): 0.441
relative viability ([3]; first compound 31.62 µM): 0.415
relative viability ([3]; first compound 100 µM): 0.388
